# Source: ChEMBL document CHEMBL1201862, “PubChem BioAssay data set” (2004)
# Active and inactive are the calls of the source. Rule as the data show it: actives have a measured IC50 and inactives only a lower limit.
# Target: Envelope glycoprotein gp160 (Human immunodeficiency virus 1, UniProt Q6QLK5)
# Assay: cell-free HIV fusion peptide-binding blockers – biochemical, uHTS, fluorescence dequenching, […] (AID 1986)
# Envelope glycoprotein gp160, sequence (Q6QLK5 whole entry, the tested form may be a part): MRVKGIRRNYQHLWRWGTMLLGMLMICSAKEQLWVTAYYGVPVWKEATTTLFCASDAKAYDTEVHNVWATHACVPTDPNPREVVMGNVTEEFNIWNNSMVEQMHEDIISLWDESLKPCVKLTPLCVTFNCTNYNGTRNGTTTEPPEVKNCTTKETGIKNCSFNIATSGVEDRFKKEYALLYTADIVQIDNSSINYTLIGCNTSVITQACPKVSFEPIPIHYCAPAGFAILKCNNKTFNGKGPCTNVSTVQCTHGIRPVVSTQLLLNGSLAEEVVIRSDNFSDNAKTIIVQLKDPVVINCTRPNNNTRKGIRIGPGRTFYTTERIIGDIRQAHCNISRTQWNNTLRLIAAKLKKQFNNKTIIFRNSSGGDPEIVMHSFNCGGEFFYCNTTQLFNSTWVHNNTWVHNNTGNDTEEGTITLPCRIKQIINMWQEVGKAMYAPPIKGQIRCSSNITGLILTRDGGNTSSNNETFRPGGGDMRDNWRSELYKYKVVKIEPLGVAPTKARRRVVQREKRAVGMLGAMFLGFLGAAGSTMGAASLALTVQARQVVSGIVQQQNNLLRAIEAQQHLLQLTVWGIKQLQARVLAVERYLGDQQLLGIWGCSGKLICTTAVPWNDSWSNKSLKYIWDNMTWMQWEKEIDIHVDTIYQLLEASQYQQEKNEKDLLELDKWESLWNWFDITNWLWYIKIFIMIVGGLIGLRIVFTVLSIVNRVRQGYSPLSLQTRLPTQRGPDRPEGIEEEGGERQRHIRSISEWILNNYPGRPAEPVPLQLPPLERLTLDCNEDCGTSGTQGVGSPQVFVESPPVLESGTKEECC
row,Compound,IC50
1,COc1ccc(-c2csc(NC(=O)c3ccccc3NS(=O)(=O)c3ccc(C)cc3)n2)cc1,12.4 µM (active)
2,CCCCCNC(=O)c1ccc2c(=O)[nH]c3c(C(=O)NCC4CCCO4)sc(=S)n3c2c1 (stereo not drawn),20 µM (active)
3,CC(C)(C)c1ccc2c(c1)OC(C(=O)N/N=C\c1ccc(-c3cccc(C(=O)O)c3)o1)CO2 (stereo not drawn),14.1 µM (active)
